These are literature values, as cited in patent US20060280815A1, “Nutritional composition which promotes weight loss, burns calories, increases thermogenesis, supports energy metabolism and/or suppresses appetite” (priority 2004, published 2006).

The conditions of this data set: people with type 2 diabetes; acute abstention from caffeine.

Consider `Cn1c(=O)c2c(ncn2C)n(C)c1=O` [caffeine], for which the “reduction of postprandial glucose levels” value was 21%.
